Test results taken from the supplement of paper PMC10307832.

Compound: N[C@@H]1CCCN(c2c(/C=C3\SC(=O)NC3=O)cccc2-c2ccccc2)C1 [AZD1208] + Cc1cc(Nc2cc(N3CCN(C)CC3)nc(Sc3ccc(NC(=O)C4CC4)cc3)n2)n[nH]1 [Tozasertib] (partner 0.1 µM)
Experiment: relative viability (nuclei count vs DMSO), 5 days (fraction); higher = more cells survive
Conditions: first compound 0.08 µM
How it was run: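 After 5 days of treatment, lung cancer cells in 1536-well plates were fixed and stained in a single step (final 0.05% Triton X-100, 1% formaldehyde, 1 ug/ml Hoechst) and their nuclei counted on 4× images. Treatment had been applied by pin tool the day after seeding as one drug alone or as a fixed anchor-drug dose with five library-drug doses (not always all listed) in √10 steps. Relative viability is the nuclei count of treated wells divided by that of vehicle wells, and values are medians of duplicate plates.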

Cell Line	relative viability
LU99A	0.288
BEN	0.507
HARA	0.11
NCI-H1648	0.599
HCC-78	0.456
NCI-H441	0.641
LCLC-97TM1	0.223
NCI-H2023	0.389
A-427	0.196

Same assay, conditions: first compound 0.253 µM

Cell Line	relative viability
NCI-H522	0.619
NCI-H1623	0.394
NCI-H838	0.261
NCI-H1650	0.387
NCI-H2009	0.785
NCI-H1993	0.52
PC-14	0.55
LCLC-103H	0.425
NCI-H596	0.925
NCI-H2228	0.165
EMC-BAC-2	0.298
NCI-H2087	0.2
HCC-366	0.125
NCI-H1666	0.6
NCI-H647	0.345
LK-2	0.2
NCI-H2126	0.784
NCI-H2342	0.499
SK-MES-1	0.956

Cell Line	relative viability
H3255	0.675
COR-L23	0.174
COR-L 105	0.384
LOU-NH91	0.558
ChaGo-K-1	0.202
NCI-H2170	0.707
NCI-H3122	0.315
HOP-62	0.302
HCC-44	1.04
SW 900	0.56
LU99A	0.304
BEN	0.414
HARA	0.0998
NCI-H1648	0.462
HCC-78	0.412
NCI-H441	0.555
LCLC-97TM1	0.23
NCI-H2023	0.235
A-427	0.195

Same assay, conditions: first compound 0.8 µM

Cell Line	relative viability
NCI-H522	0.492
NCI-H1623	0.403
NCI-H838	0.267
NCI-H1650	0.277
NCI-H2009	0.667
NCI-H1993	0.526
PC-14	0.467
LCLC-103H	0.457
NCI-H596	0.77
NCI-H2228	0.168
EMC-BAC-2	0.28
NCI-H2087	0.264
HCC-366	0.12
NCI-H1666	0.513
NCI-H647	0.175
LK-2	0.169
NCI-H2126	0.816
NCI-H2342	0.453
SK-MES-1	0.903

Cell Line	relative viability
H3255	0.534
COR-L23	0.187
COR-L 105	0.376
LOU-NH91	0.62
ChaGo-K-1	0.193
NCI-H2170	0.614
NCI-H3122	0.353
HOP-62	0.372
HCC-44	0.877
SW 900	0.528
LU99A	0.276
BEN	0.385
HARA	0.111
NCI-H1648	0.346
HCC-78	0.437
NCI-H441	0.57
LCLC-97TM1	0.175
NCI-H2023	0.254
A-427	0.212

Same assay, conditions: first compound 2.53 µM

Cell Line	relative viability
NCI-H522	0.514
NCI-H1623	0.426
NCI-H838	0.268
NCI-H1650	0.321
NCI-H2009	0.684
NCI-H1993	0.566
PC-14	0.503
LCLC-103H	0.481
NCI-H596	0.733
NCI-H2228	0.172
EMC-BAC-2	0.25
NCI-H2087	0.209
HCC-366	0.098
NCI-H1666	0.644
NCI-H647	0.295
LK-2	0.13
NCI-H2126	0.632
NCI-H2342	0.418
SK-MES-1	0.853

Cell Line	relative viability
H3255	0.58
COR-L23	0.182
LOU-NH91	0.556
ChaGo-K-1	0.218
NCI-H2170	0.447
NCI-H3122	0.348
HOP-62	0.287
HCC-44	0.896
SW 900	0.552
LU99A	0.3
BEN	0.374
HARA	0.0918
NCI-H1648	0.33
HCC-78	0.288
NCI-H441	0.508
LCLC-97TM1	0.135
NCI-H2023	0.219
A-427	0.18

Same assay, conditions: first compound 8 µM

Cell Line	relative viability
NCI-H522	0.446
NCI-H1623	0.393
NCI-H838	0.264
NCI-H1650	0.304
NCI-H2009	0.597
NCI-H1993	0.543
PC-14	0.463
LCLC-103H	0.373
NCI-H596	0.592
NCI-H2228	0.108
EMC-BAC-2	0.222
NCI-H2087	0.212
HCC-366	0.0502
NCI-H1666	0.58
NCI-H647	0.163
LK-2	0.168
NCI-H2126	0.66
NCI-H2342	0.421
SK-MES-1	0.744

Cell Line	relative viability
H3255	0.689
COR-L23	0.171
COR-L 105	0.348
LOU-NH91	0.516
ChaGo-K-1	0.183
NCI-H2170	0.306
NCI-H3122	0.369
HOP-62	0.263
HCC-44	0.866
SW 900	0.428
LU99A	0.203
BEN	0.435
HARA	0.0796
NCI-H1648	0.389
HCC-78	0.256
NCI-H441	0.375
LCLC-97TM1	0.132
NCI-H2023	0.181
A-427	0.185
